# Results reported in US8198269B2, “Fused aminodihydrothiazine derivative” (Eisai R&D Management Co., Ltd., priority 2008, dated 2012).
# System: Aβ42 production
# Test: Quantification of Aβ peptide in culture of neurons from rat fetus brain (Aβ ELISA)
# Format: cell-based
# Settings: Neuron, 72 h; rat primary neuronal culture (embryonic day 18 Wistar rat cerebral cortex); cultured three days after addition of compound; Aβ42 concentration in the medium by ELISA; read-out: Aβ42 production reducing effect IC50
# Experimental: Quantification of Aβ Peptide in Culture of Neurons from Rat Fetus Brain
# (1) Rat Primary Neuronal Culture
# Primary neuronal cultures were prepared from the cerebral cortex of embryonic day 18 Wistar rats (Charles River Japan, Yokohama, Japan). Specifically, the embryos were aseptically removed from pregnant rats under ether anesthesia. The brain was isolated from the embryo and immersed in an ice-cold L-15 medium (such as Invitrogen Corp. Cat #11415-064, Carlsbad, Calif., USA, or SIGMA L1518). The cerebral cortex was collected from the isolated brain under a stereoscopic microscope. The cerebral cortex fragments collected were enzymatically treated in an enzyme solution containing 0.25% trypsin (Invitrogen Corp. Cat #15050-065, Carlsbad, Calif., USA) and 0.01% DNase (Sigma D5025, St. Louis, Mo., USA) at 37° C. for 30 minutes to disperse the cells. Here, the enzymatic reaction was stopped by adding inactivated horse serum to the solution. The enzymatically treated solution was centrifuged at 1,500 rpm for five minutes to remove the supernatant. 5 to 10 ml of a medium was added to the resulting cell mass. […]
structure (smiles),measurement,value
"NC1=N[C@@]2(c3cc(NC(=O)c4cnc(OCF)cn4)ccc3F)COC[C@@H](F)[C@H]2CS1 [Example 21, N-[3-((4aS,5S,8aS)-2-amino-5-fluoro-4,4a,5,6,8,8a-hexahydro-7-oxa-3-thia-1-azanaphthalen-8a-yl)-4-fluorophenyl]-5-fluoromethoxypyrazine-2-carboxamide]",IC50,0.01 µM
